Measured values: ChEMBL document CHEMBL4819097, “Identification of an allosteric and Smad3-selective inhibitor of p38αMAPK using a substrate-based approach” (Bioorg Med Chem Lett, 2021)
The source made the active and inactive calls. No cut-off for these calls is given here. Peptide text beside a SMILES is read from it.

Key:
[1] = molecular target: T1, Mitogen-activated protein kinase 14 (Homo sapiens, UniProt Q16539); experiment: Binding affinity to P38alpha MAPK (unknown origin) using Smad3 as substrate incubated for 1 hr in presence of increasing concentration of ATP by ELISA
T1 sequence (Q16539 whole entry): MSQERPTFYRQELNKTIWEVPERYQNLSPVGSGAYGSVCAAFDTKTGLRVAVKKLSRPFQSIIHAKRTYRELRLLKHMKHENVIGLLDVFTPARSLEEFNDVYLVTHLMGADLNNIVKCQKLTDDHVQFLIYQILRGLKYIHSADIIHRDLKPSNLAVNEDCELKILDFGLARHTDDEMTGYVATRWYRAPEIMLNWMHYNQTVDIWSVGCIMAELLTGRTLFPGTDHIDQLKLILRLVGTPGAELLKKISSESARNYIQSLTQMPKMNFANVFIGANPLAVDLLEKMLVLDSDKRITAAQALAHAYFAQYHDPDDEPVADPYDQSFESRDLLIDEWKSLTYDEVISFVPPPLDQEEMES

[2] = molecular target: T1, Mitogen-activated protein kinase 14; experiment: Binding affinity to P38alpha MAPK (unknown origin) using Smad3 as substrate incubated for 1 hr in presence of ATP by ELISA based competitive binding potency assay
[3] = molecular target: T1, Mitogen-activated protein kinase 14; experiment: Binding affinity to recombinant human N-terminal GST-tagged P38alpha MAPK expressed in Escherichia coli using ERKtide as substrate by mobility shift assay
[4] = molecular target: T1, Mitogen-activated protein kinase 14; experiment: Binding affinity to P38alpha MAPK (unknown origin) using MAPKAPK2 as substrate incubated for 1 hr by ELISA
[5] = molecular target: T1, Mitogen-activated protein kinase 14; experiment: Binding affinity to P38alpha MAPK (unknown origin) using MBP as substrate incubated for 1 hr by ELISA

SMILES	Activity [1]	IC50 [2]	IC50 [3]	IC50 [4]	IC50 [5]
Oc1ccc(-c2nc(-c3ccc(F)cc3)c(-c3ccncc3)[nH]2)cc1	inactive	–	–	–	–
CC[C@H](C)[C@H](N)C(=O)N[C@@H](CCCCN)C(=O)N[C@H](C(=O)N[C@@H](CCCCN)C(=O)N[C@@H](CCCCN)C(=O)N[C@H](C(=O)N[C@@H](CCC(=O)O)C(=O)N[C@@H](CC(=O)O)C(=O)N[C@@H](C)C(=O)N[C@@H](CO)C(=O)N[C@@H](CC(N)=O)C(=O)N1CCC[C@H]1C(=O)N[C@@H](CC(C)C)C(=O)O)[C@@H](C)CC)[C@@H](C)CC (H-IKIKKIEDASNPL-OH)	–	> 1 µM	–	–	–
CC[C@H](C)[C@H](N)C(=O)N[C@@H](CCCCN)C(=O)N[C@H](C(=O)N[C@@H](CCCCN)C(=O)N[C@@H](CCCCN)C(=O)N[C@H](C(=O)N[C@@H](CCC(=O)O)C(=O)N[C@@H](CC(=O)O)C(=O)N[C@@H](C)C(=O)N[C@@H](CO)C(=O)N[C@@H](CC(N)=O)C(=O)N1CCC[C@H]1C(=O)N[C@@H](CC(C)C)C(=O)N[C@@H](CC(C)C)C(=O)N[C@@H](CC(C)C)C(=O)N[C@H](C(=O)N[C@@H](CS)C(=O)N[C@@H](CCCNC(=N)N)C(=O)N[C@@H](CCCNC(=N)N)C(=O)N[C@@H](CCCNC(=N)N)C(=O)N[C@@H](CCCCN)C(=O)N[C@@H](C)C(=O)N[C@@H](CCCNC(=N)N)C(=O)N[C@@H](C)C(=O)N[C@@H](CC(C)C)C(=O)O)[C@@H](C)CC)[C@@H](C)CC)[C@@H](C)CC (H-IKIKKIEDASNPLLLICRRRKARAL-OH)	Active	0.0013 µM	> 100 µM	> 1 µM	> 1 µM
CC[C@H](C)[C@H](N)C(=O)N[C@@H](CCCCN)C(=O)N[C@H](C(=O)N[C@@H](CCCCN)C(=O)N[C@@H](CCCCN)C(=O)N[C@H](C(=O)N[C@@H](CCC(=O)O)C(=O)N[C@@H](CC(=O)O)C(=O)N[C@@H](C)C(=O)N[C@@H](CO)C(=O)N[C@@H](CC(N)=O)C(=O)N1CCC[C@H]1C(=O)N[C@@H](CC(C)C)C(=O)N[C@@H](CC(C)C)C(=O)N[C@@H](CC(C)C)C(=O)N[C@@H](CCCCN)C(=O)N[C@@H](CCCNC(=N)N)C(=O)N[C@@H](CCCNC(=N)N)C(=O)NCC(=O)O)[C@@H](C)CC)[C@@H](C)CC (H-IKIKKIEDASNPLLLKRRG-OH)	–	0.3 µM	–	–	–
CC(C)C[C@H](NC(=O)[C@@H](NC(=O)[C@@H]1CCCN1C(=O)[C@@H]1CCCN1C(=O)[C@@H](N)CC(C)C)C(C)C)C(=O)N[C@H](C(=O)N1CCC[C@H]1C(=O)N[C@@H](CCCNC(=N)N)C(=O)N[C@@H](Cc1cnc[nH]1)C(=O)N[C@H](C(=O)N[C@@H](CCC(=O)O)C(=O)O)[C@@H](C)O)C(C)C (H-LPPVLVPRHTE-OH)	–	> 100 µM	> 100 µM	–	–
CC[C@H](C)[C@H](NC(=O)[C@H](CCC(=O)O)NC(=O)[C@@H](NC(=O)[C@H](Cc1cnc[nH]1)NC(=O)[C@H](CCCNC(=N)N)NC(=O)[C@@H]1CCCN1C(=O)[C@@H](NC(=O)[C@H](CC(C)C)NC(=O)[C@@H](NC(=O)[C@@H]1CCCN1C(=O)[C@@H]1CCCN1C(=O)[C@@H](N)CC(C)C)C(C)C)C(C)C)[C@@H](C)O)C(=O)N1CCC[C@H]1C(=O)N[C@@H](C)C(=O)N[C@@H](CCC(=O)O)C(=O)N[C@@H](Cc1ccccc1)C(=O)N1CCC[C@H]1C(=O)N1CCC[C@H]1C(=O)N[C@@H](CC(C)C)C(=O)N[C@@H](CC(=O)O)C(=O)O (H-LPPVLVPRHTEIPAEFPPLD-OH)	–	> 100 µM	> 100 µM	–	–
CC[C@H](C)[C@H](NC(=O)[C@H](CCC(=O)O)NC(=O)[C@@H](NC(=O)[C@H](Cc1cnc[nH]1)NC(=O)[C@H](CCCNC(=N)N)NC(=O)[C@@H]1CCCN1C(=O)[C@@H](NC(=O)[C@H](CC(C)C)NC(=O)[C@@H](NC(=O)[C@@H]1CCCN1C(=O)[C@@H]1CCCN1C(=O)[C@@H](N)CC(C)C)C(C)C)C(C)C)[C@@H](C)O)C(=O)N1CCC[C@H]1C(=O)N[C@@H](C)C(=O)N[C@@H](CCC(=O)O)C(=O)N[C@@H](Cc1ccccc1)C(=O)N1CCC[C@H]1C(=O)N1CCC[C@H]1C(=O)N[C@@H](CC(C)C)C(=O)N[C@@H](CC(=O)O)C(=O)N[C@@H](CC(=O)O)C(=O)N[C@@H](Cc1ccc(O)cc1)C(=O)N[C@@H](CO)C(=O)N[C@@H](Cc1cnc[nH]1)C(=O)N[C@@H](CO)C(=O)N[C@H](C(=O)N1CCC[C@H]1C(=O)N[C@@H](CCC(=O)O)C(=O)N[C@@H](CC(N)=O)C(=O)O)[C@@H](C)CC (H-LPPVLVPRHTEIPAEFPPLDDYSHSIPEN-OH)	–	> 100 µM	> 100 µM	–	–
CC[C@H](C)[C@H](NC(=O)[C@H](CCCCN)NC(=O)[C@H](CC(C)C)NC(=O)CNC(=O)[C@@H]1CCCN1C(=O)[C@H](CC(N)=O)NC(=O)[C@H](CCCNC(=N)N)NC(=O)[C@H](CCCCN)NC(=O)[C@H](CCCCN)NC(=O)CNC(=O)[C@H](CCCCN)NC(=O)[C@@H](N)CO)C(=O)N1CCC[C@H]1C(=O)O (H-SKGKKRNPGLKIP-OH)	–	2.6 µM	> 100 µM	–	–
CC(C)C[C@H](NC(=O)[C@H](C)NC(=O)[C@H](CCCNC(=N)N)NC(=O)[C@H](C)NC(=O)[C@H](CCCCN)NC(=O)[C@H](CCCNC(=N)N)NC(=O)[C@H](CCCNC(=N)N)NC(=O)[C@H](CCCNC(=N)N)NC(=O)[C@H](CCCCN)NC(=O)[C@H](CC(C)C)NC(=O)[C@H](CC(C)C)NC(=O)[C@H](CC(C)C)NC(=O)[C@@H]1CCCN1C(=O)[C@H](CC(N)=O)NC(=O)[C@@H](N)CO)C(=O)O (H-SNPLLLKRRRKARAL-OH)	–	0.29 µM	–	–	–
CC[C@H](C)[C@H](NC(=O)[C@H](Cc1c[nH]c2ccccc12)NC(=O)CNC(=O)[C@H](CC(C)C)NC(=O)[C@H](CC(C)C)NC(=O)[C@H](CCCNC(=N)N)NC(=O)[C@H](CS)NC(=O)[C@@H](NC(=O)[C@@H](NC(=O)[C@@H](NC(=O)[C@@H]1CCCN1C(=O)[C@@H]1CCCN1C(=O)[C@@H](NC(=O)[C@H](Cc1ccccc1)NC(=O)[C@@H]1CCCN1C(=O)[C@H](CC(C)C)NC(=O)[C@@H](NC(=O)[C@H](CO)NC(=O)[C@@H](N)CO)[C@@H](C)CC)[C@@H](C)O)[C@@H](C)CC)C(C)C)[C@@H](C)CC)C(=O)N[C@@H](CS)C(=O)N[C@@H](CCCCN)C(=O)NCC(=O)N[C@@H](CCC(=O)O)C(=O)O (H-SSILPFTPPIVICRLLGWICKGE-OH)	–	9 µM	> 100 µM	–	–
